According to patent US20220317115A1, “3D ORGANOIDS FOR PERSONALIZED ORAL CANCER THERAPY” (THE TRUSTEES OF COLUMBIA UNIVERSITY IN THE CITY OF NEW YOURK, priority 2019, published 2022):
“Also recorded” adds a separate entry of the source. Where two headings read alike, the source gives them in different places.

Tests used:
[1] = test system: 4NQO-induced tumor organoids (Aldh2*2 vs Aldh2*1); assay: CellTiter-Glo 3D cell viability assay of 4NQO-induced tumor organoids with Aldh2 SNP genotypes; type: cell-based, mice; conditions: for Response of Aldh2*2 (Aldh2 mutant) tumor organoids to chemotherapy agent compared with Aldh2*1 (wild-type) tumor organoids: treatment for 3 days, cisplatin 80 μM, 5FU data not shown
Experimental: 4NQO-induced tumor organoids with indicated Aldh2 SNP genotypes were analyzed by H&E staining for cellular abnormality in FIG. 5A and by […] CellTiter-Glo® 3D cell viability assays, following treatment for 3 days with cisplatin (80 μM) along with or without 10 μM Alda-1, an Aldh2 activator in FIG. 5B. *, p<0.01 vs. Aldh21; ns, not significant (n=6).
Aldh2*2 is a common single nucleotide polymorphism (SNP) strongly associated with OSCC. To evaluate the role of Aldh2*2 in 4NQO-induced neoplastic cells in 3D organoids, Aldh2*2 mice expressing mutant Aldh2 protein (Aldh2^E487K) were compared with wild-type Aldh2*1 (control) mice. 3D organoids were analyzed from tumors detected in mice sacrificed at 26 weeks from the start of 4NQO treatment. […] Thus, individuals with Aldh2*2 SNP may respond to chemotherapy better despite its strong association with a risk of OSCC tumor development. It was hypothesized that pharmacological Aldh2 inhibition by Disulfiram (Antabuse, used a treatment of chronic alcoholism) augments the chemotherapy effects in OSCC in individuals with Aldh2*1. Thus, patient-derived 3D organoids may serve as a platform for new translational applications in personalized medicine for therapy of OSCC and potentially other squamous cell carcinomas.
Oral 3D organoids (FIG. 6): 3D organoids will be generated according to the published protocols (Kasagi et al. 2018; Natsuizaka et al. 2017; Whelan et al. 2017). In 24-well plates, 2,000 cells are seeded in Matrigel (50 μl/well). Organoids grow within 7-10 days to form 50-100 μm spherical structures (100% success, n=34 for human normal biopsies) (Kasagi et al. 2018). For quality control purposes, an OSCC cell line will be used (Kijima et al. 2019). Time-lapse analysis of growing organoids will be done under light microscopy to determine their average size and morphology. organoid formation rate (OFR; the percentage of the number of organoids formed at day 10 per total number of cells seeded at day 0) will be determined. Organoids will then be processed for DNA, RNA and flow cytometry, and histology. […]

EAC PDO = assay: IC50 from drug-treated EAC PDO, mean organoid size by Celigo Imaging Cytometer; type: cell-based, human; conditions: 72 h-exposure, R squares 0.5874 (Cisplatin) and 0.8652 (Paclitaxel), read-out: IC50 (organoid size normalized by vehicle-treated control as 100%)
Experimental: EAC PDO size were evaluated by Celigo Imaging Cytometer measuring the mean organoid size following 72 h-exposure to Cisplatin and Paclitaxel at indicated final concentrations. Organoid size was normalized by vehicle-treated control as 100%.
To evaluate organoid growth, 3D organoid structures were monitored during culture, and their size is documented by a conventional phase-contrast inverted microscope or highthroughput cell imaging instruments (e.g., Celigo Image Cytometer, Nexcelom Bioscience) with the capacity of automated multi-well rapid imaging and quantitative analysis of organoid size, number and structure.
• 1. Grow organoids in 24-well or 96-well plates (Basic Protocols 1 and 2). Use at least three (3) wells per condition as biological replicates. • 2. Acquire phase-contrast images (FIGS. 37A-37B) manually via a conventional microscopy with a camera. Use ImageJ software to measure the diameter of at least 5 organoids per well. Alternatively, Celigo imaging cytometer can not only acquire phase-contrast images but calculate mean organoid area for all organoids imaged. Such assays can be performed in conjunction with drug treatment (FIG. 38) (Basic Protocol 6). • 3. Repeat step 2 every other day. • 4. Generate growth curves by plotting organoid diameter or area at each time point.
• 1. Remove the spent culture medium by aspiration. • 2. […]

esophageal 3D organoids = assay: Modeling reactive epithelium in esophageal organoids with IL-13; type: cell-based, human; conditions: IL-13 stimulation (10 ng/ml in protocol), compared to untreated organoids
Source text: Reactive changes in esophageal epithelium are induced by multiple soluble factors secreted by immune cells and fibroblasts. The function of these factors in disease development can be modeled and evaluated in esophageal organoids. Here we provide an example of such an experiment by treating normal esophageal organoids with interleukin 13 (IL-13) to model reactive changes induced in esophageal epithelium by eosinophils; however, any bioactive compounds (cytokines, antibodies, small molecule inhibitors) can be utilized to model pathologic conditions and/or treatment strategies. Representative images of esophageal organoids treated with IL-13, as well as gene expression profiles of select EoE-relevant genes (Blanchard et al., 2007; Kasagi et al., 2019), can be found in FIGS. 35A-35B.
Additional Materials (see also Basic Protocol 1) • Interleukin 13 (IL-13; R&D Systems, cat. no. 213-ILB-005) • Reconstituted IL-13 (reconstitute lyophilized IL-13 to 100 μg/ml in PBS, aliquot, and store at −80° C.; avoid repeated freeze-thaw cycles) • Growing culture of esophageal organoids (see Basic Protocol 1) • 1. Remove spent medium. • 2. Dispense 500 μl KSFMC containing 10 ng/ml IL-13. • 3. Observe organoid growth under a phase-contrast microscope. • 4. Harvest organoids for histology and RNA isolation, as described in Basic Protocol 3. • 5. Evaluate changes in morphology and gene expression.

In the case of `O=c1[nH]cc(F)c(=O)[nH]1` [5FU, 5-Fluorouracil], the “Response of Aldh2*2 (Aldh2 mutant) tumor organoids to chemotherapy agent compared with Aldh2*1 (wild-type) tumor organoids” value [1] is reported as “better than Aldh2*1”.
`O=C(NCc1ccc2c(c1)OCO2)c1c(Cl)cccc1Cl` [Alda1] was tested, and the “Effect on cisplatin-mediated cytotoxicity in Aldh2*2 tumor 3D organoids” value ([1]; 10 μM Alda-1 with cisplatin 80 μM, 3 days) was “cisplatin-mediated cytotoxicity was reversed”.
In the case of `N.N.[Cl][Pt][Cl]` [Cisplatin], the “Response of Aldh2*2 (Aldh2 mutant) tumor organoids to chemotherapy agent compared with Aldh2*1 (wild-type) tumor organoids” value [1] is reported as “better than Aldh2*1” and the IC50 (EAC PDO) is reported as 7.1 µM.
For `CC(=O)O[C@H]1C(=O)[C@@]2(C)[C@H]([C@H](OC(=O)c3ccccc3)[C@]3(O)C[C@H](OC(=O)[C@H](O)[C@@H](NC(=O)c4ccccc4)c4ccccc4)C(C)=C1C3(C)C)[C@]1(OC(C)=O)CO[C@@H]1C[C@@H]2O` [Paclitaxel], the IC50 (EAC PDO; Homo sapiens) was 2.3 µM.
For “IL-13: eosinophilic esophagitis (EoE)-relevant cytokine, recombinant (R&D Systems)”, the “Reactive epithelial change (basal cell hyperplasia) in organoids” value (esophageal 3D organoids) was “induces BCH-like changes; also recorded: Basal cell hyperplasia is evident”.
